# According to patent US8563565B2, “Pyrazoloquinoline derivatives” (Eisai R&D Management Co., Ltd., priority 2011, dated 2013):
# Molecular target: T1, human recombinant PDE9 protein (Homo sapiens, UniProt O76083)
# T1 construct: His-tag (inferred from the Ni column purification; a myc His-tag vector is named only for the HEK293 expression check); made in house; host or cells: silkworm (pYNG vector, Katakura Industries)
# Test: PDE9 inhibitory activity test (measurement of PDE9 inhibitory action, [3H]-cGMP)
# Assay type: biochemical
# Conditions: PDE9 IC50, human recombinant PDE9, 30° C., 10 min
# Description: 1) Preparation of a Human Recombinant PDE9 Protein
# An hsPDE9A 1cDNA fragment was amplified by being based on a base sequence (Accession No.: AF048837) of the hsPDE9A1 registered on GenBank data base, and by using the following sequences (Hokkaido System Science Co., Ltd.) as a primer and Human hippocampus cDNA library (Clontech Laboratories, Inc.) as a template DNA, and using Pfu50 DNA polymerase (Invitrogen Corp.), and by a polymerase chain reaction (PCR) of the following condition.
# The condition of PCR: [96° C., 5 min]×1 cycle, [(96° C., 10 sec), (57° C., 5 sec), (72° C., 2 min)]×30 cycles
# The obtained hsPDE9A 1 cDNA fragment was incorporated in a TOPO-TA cloning vector (Invitrogen Corp.), and the base sequence was checked; and thereafter, the resultant was transfected in a pcDNA 3.1/myc His-tag vector (Invitrogen Corp.) to thereby make a human PDE9 expression vector for mammal cells. The human PDE9 expression vector for mammal cells was transfected with transient expression to an HEK293 cell by using a LIPOFETAMINE 2000 Reagent (Gibco). It was confirmed by Western blot method that the PDE9A expressed in the HEK293 cell, and then, the human PDE9A 1cDNA fragment was transfected in a pYNG vector (Katakura Industries Co., Ltd.) to thereby make an expression vector for insect cells. A supernatant of homogenized silk worm in which a large amount of PDE9 was expressed was purified by an equilibrated Ni column using a buffer A (20 mmol/L Tris-HCl, pH: 8.0, 1 mmol/L DTT, 10 mmol/L imidazole). After 1 hour of mixing of the supernatant and the Ni column, cleaning was carried out using a buffer B (20 mmol/L Tris-HCl, pH: 8.0, 1 mmol/L […]), and elution was carried out using a buffer C (20 mmol/L Tris-HCl, pH: 8.0, 1 mmol/L DTT, 100 mmol/L imidazole). An elution fraction was preparatively collected to thereby obtain a PDE9 enzyme solution.
# 2) Measurement of PDE9 Inhibitory Action
# To 100 μL of a buffer D (40 mmol/L Tris-HCl, pH: 7.4, 10 mmol/L MgCl2, 1 mM DTT, 2 μM cGMP) solution containing [^3H]-cGMP ([…]/mL), 10 μL of a compound solution for evaluation (a solution in which a compound was dissolved in DMSO and diluted so that the DMSO concentration became 5%) and 90 μL of a solution prepared by diluting the PDE9 enzyme solution prepared in the above with a buffer E (40 mmol/L Tris-HCl, pH: 7.4, 10 mmol/L MgCl2, 1 mM DTT, 1 mmol/L EGTA) were added under ice cooling. The resultant mixed solution was incubated at 30° C. for 10 min, and thereafter heated for 2 min in boiled water to stop the enzyme reaction of the PDE9. Then, the resultant was returned to room temperature; 50 μL of 5′-Nucleotidase (Biomol GmbH, 10 units/mL) was added thereto; and the resultant was incubated at 30° C. for 10 min to thereby convert [^3H]-5′-GMP formed in the previous reaction to [^3H]-guanosine. 500 μL of an anion exchange resin (Bio-Rad AG1-X2 resin, mesh size: 200-400, H2O:resin=2:1) was added to the resultant reaction liquid, and allowed to stand for 10 min, and thereafter centrifuged (2,000 rpm, 10 min); and a supernatant in which the [^3H]-guanosine was present was transferred to a LumaPlate (PerkinElmer, Inc.), and the radioactivity was measured by a TopCount NXT microplate scintillation and luminescence counter (PerkinElmer, Inc.).
# The inhibition percentage of the evaluation compound was calculated using the following expression, taking the radioactivity of a control containing no evaluation compound to be (A), the radioactivity of a blank containing no enzyme to be (B), and the radioactivity of the evaluation compound to be (C). Inhibition percentage=100−{[(C)−(B)]/[(A)−(B)]}×100(%)
# The IC50 value for PDE9 of the evaluation compound was determined from inhibition percentage for various concentrations.
# T1 sequence (O76083 whole entry): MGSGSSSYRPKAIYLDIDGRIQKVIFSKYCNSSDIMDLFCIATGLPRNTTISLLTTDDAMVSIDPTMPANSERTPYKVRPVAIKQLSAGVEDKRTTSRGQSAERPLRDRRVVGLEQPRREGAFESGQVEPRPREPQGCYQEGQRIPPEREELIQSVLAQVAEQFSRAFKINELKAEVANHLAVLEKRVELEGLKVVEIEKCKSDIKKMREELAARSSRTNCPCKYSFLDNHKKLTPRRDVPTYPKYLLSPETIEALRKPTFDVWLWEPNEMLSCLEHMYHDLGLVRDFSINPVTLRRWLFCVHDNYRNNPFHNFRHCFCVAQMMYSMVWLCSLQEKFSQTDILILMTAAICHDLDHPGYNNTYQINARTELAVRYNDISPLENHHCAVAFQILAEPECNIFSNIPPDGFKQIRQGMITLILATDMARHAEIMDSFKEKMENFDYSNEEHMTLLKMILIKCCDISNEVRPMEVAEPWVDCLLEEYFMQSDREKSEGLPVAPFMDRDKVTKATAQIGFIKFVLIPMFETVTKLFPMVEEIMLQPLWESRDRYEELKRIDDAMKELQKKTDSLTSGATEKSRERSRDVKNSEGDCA
row,Compound,IC50 [nM]
1,"COc1nc(C)cc(C)c1-c1ccc2c(c1)[nH]c(=O)c1cnn([C@@H]3COC[C@H]3OC)c12 (racemic) [Example 60, 7-(2-methoxy-4,6-dimethylpyridin-3-yl)-1-[(3RS,4SR)-4-methoxytetrahydrofuran-3-yl]-1H-pyrazolo[4,3-c]quinolin-4(5H)-one]",31.1
2,"COc1ncc(C)c(-c2ccc3c(c2)[nH]c(=O)c2cnn([C@@H]4COC[C@H]4OC)c23)c1C (racemic) [Example 61, 7-(2-methoxy-3,5-dimethylpyridin-4-yl)-1-[(3RS,4SR)-4-methoxytetrahydrofuran-3-yl]-1H-pyrazolo[4,3-c]quinolin-4(5H)-one]",77.5
3,"COc1nc(C)cc(C)c1-c1ccc2c(c1)[nH]c(=O)c1cnn(C3CCOC3)c12 (single isomer, unassigned) [28 (+)]",29.6
4,"COc1cc(C)c(-c2ccc3c(c2)[nH]c(=O)c2cnn(C4CCOC4)c23)c(C)n1 (single isomer, unassigned) [29 (+)]",137
5,"COc1nc(CF)cc(C)c1-c1ccc2c(c1)[nH]c(=O)c1cnn(C3CCOC3)c12 (single isomer, unassigned) [31 (+)]",20.1
6,"COc1nc(CF)cc(C)c1-c1ccc2c(c1)[nH]c(=O)c1cnn(C3CCOC3)c12 (single isomer, unassigned) [31 (−)]",7.42
7,"COc1nccc(C)c1-c1ccc2c(c1)[nH]c(=O)c1cnn(C3CCOC3)c12 (single isomer, unassigned) [32 (+)]",70.7
8,"COc1nc(CF)cc(C)c1-c1ccc2c(c1)[nH]c(=O)c1cnn(C3CCCOC3)c12 (single isomer, unassigned) [35 (+)]",2.62
9,"COc1nc(CF)cc(C)c1-c1ccc2c(c1)[nH]c(=O)c1cnn(C3CCCOC3)c12 (single isomer, unassigned) [35 (−)]",2.96
10,"COc1ncc(C)c(-c2ccc3c(c2)[nH]c(=O)c2cnn(C4CCCOC4)c23)c1C (single isomer, unassigned) [36 (+)]",8.98
11,"COc1ncc(C)c(-c2ccc3c(c2)[nH]c(=O)c2cnn(C4CCCOC4)c23)c1C (single isomer, unassigned) [36 (−)]",8.1
12,"COc1cc(C)c(-c2ccc3c(c2)[nH]c(=O)c2cnn(C4CCCOC4)c23)c(C)n1 (single isomer, unassigned) [37 (+)]",10.9
13,"COc1cc(C)c(-c2ccc3c(c2)[nH]c(=O)c2cnn(C4CCCOC4)c23)c(C)n1 (single isomer, unassigned) [37 (−)]",10.1
14,"COc1cc(C)c(-c2ccc3c(c2)[nH]c(=O)c2cnn(C4CCCOC4)c23)c(CF)n1 (single isomer, unassigned) [38 (+)]",17.1
15,"COc1cc(C)c(-c2ccc3c(c2)[nH]c(=O)c2cnn(C4CCCOC4)c23)c(CF)n1 (single isomer, unassigned) [38 (−)]",12.4
16,"COc1nccc(C)c1-c1ccc2c(c1)[nH]c(=O)c1cnn(C3CCCOC3)c12 (single isomer, unassigned) [39 (+)]",5.07
17,"COc1nccc(C)c1-c1ccc2c(c1)[nH]c(=O)c1cnn(C3CCCOC3)c12 (single isomer, unassigned) [39 (−)]",4.08
18,"COc1cc(C)c(-c2ccc3c(c2)[nH]c(=O)c2cnn(C4CCCOCC4)c23)c(C)c1 (single isomer, unassigned) [42 (+)]",8.81
19,"COc1cc(C)c(-c2ccc3c(c2)[nH]c(=O)c2cnn(C4CCCOCC4)c23)c(C)c1 (single isomer, unassigned) [42 (−)]",22
20,"Cc1cccc(C)c1-c1ccc2c(c1)[nH]c(=O)c1cnn(C3CCOC3)c12 (single isomer, unassigned; (+)) [33 (+), (+)-7-(2,6-dimethylphenyl)-1-(tetrahydrofuran-3-yl)-1H-pyrazolo[4,3-c]quinolin-4(5H)-one]",113
21,"COc1nc(C)cc(C)c1-c1ccc2c(c1)[nH]c(=O)c1cnn(C3CCCOC3)c12 (single isomer, unassigned; (+)) [34 (+), (+)-7-(2-methoxy-4,6-dimethylpyridin-3-yl)-1-(tetrahydro-2H-pyran-3-yl)-1H-pyrazolo[4,3-c]quinolin-4(5H)-one]",3.88

row,Compound,IC50 [nM]
1,"COc1ncc(C)c(-c2ccc3c(c2)[nH]c(=O)c2cnn(C4CCCOCC4)c23)c1C (single isomer, unassigned; (+)) [41 (+), (+)-7-(2-methoxy-3,5-dimethylpyridin-4-yl)-1-(oxepan-4-yl)-1H-pyrazolo[4,3-c]quinolin-4(5H)-one]",5.91
2,"COc1nc(C)cc(C)c1-c1ccc2c(c1)[nH]c(=O)c1cnn(C3CCCOC3)c12 (single isomer, unassigned; (-)) [34 (−), (−)-7-(2-methoxy-4,6-dimethylpyridin-3-yl)-1-(tetrahydro-2H-pyran-3-yl)-1H-pyrazolo[4,3-c]quinolin-4(5H)-one]",3.36
3,"COc1ncc(C)c(-c2ccc3c(c2)[nH]c(=O)c2cnn(C4CCCOCC4)c23)c1C (single isomer, unassigned; (-)) [41 (−), (−)-7-(2-methoxy-3,5-dimethylpyridin-4-yl)-1-(oxepan-4-yl)-1H-pyrazolo[4,3-c]quinolin-4(5H)-one]",12.1
4,COc1ncc(C)c(-c2ccc3c(c2)[nH]c(=O)c2cnn([C@@H]4CCOC4)c23)c1C [25 (+)R],41
5,COc1ncc(C)c(-c2ccc3c(c2)[nH]c(=O)c2cnn([C@H]4CCOC4)c23)c1C [25 (−)S],9.43
6,COc1cc(C)c(-c2ccc3c(c2)[nH]c(=O)c2cnn(C4CCOC4)c23)c(CF)n1 (stereo not drawn) [30 (+)],225
7,"Cc1cccc(C)c1-c1ccc2c(c1)[nH]c(=O)c1cnn(C3CCOCC3)c12 [Example 1, 7-(2,6-dimethylphenyl)-1-(tetrahydro-2H-pyran-4-yl)-1H-pyrazolo[4,3-c]quinolin-4(5H)-one]",24.3
8,COCc1cc(C)c(-c2ccc3c(c2)[nH]c(=O)c2cnn(C4CCOCC4)c23)c(C)c1 [Example 7],9.2
9,Cc1cc(F)nc(C)c1-c1ccc2c(c1)[nH]c(=O)c1cnn(C3CCOCC3)c12 [Example 8],25.2
10,Cc1cc(Cl)c(-c2ccc3c(c2)[nH]c(=O)c2cnn(C4CCOCC4)c23)c(C)n1 [Example 9],21.7
11,COc1ncc(Cl)c(C)c1-c1ccc2c(c1)[nH]c(=O)c1cnn(C3CCOCC3)c12 [Example 10],20.8
12,COc1nc(C)c(Cl)c(C)c1-c1ccc2c(c1)[nH]c(=O)c1cnn(C3CCOCC3)c12 [Example 11],11.3
13,Cc1cc(C#N)nc(C)c1-c1ccc2c(c1)[nH]c(=O)c1cnn(C3CCOCC3)c12 [Example 13],36.7
14,COc1nc(C)c(-c2ccc3c(c2)[nH]c(=O)c2cnn(C4CCOCC4)c23)c(OC)n1 [Example 14],21.2
15,Cc1cc(C(F)F)nc(C)c1-c1ccc2c(c1)[nH]c(=O)c1cnn(C3CCOCC3)c12 [Example 16],6.32
16,COc1nc(CF)cc(C)c1-c1ccc2c(c1)[nH]c(=O)c1cnn(C3CCOCC3)c12 [Example 17],6.08
17,Cc1cc(CF)nc(C)c1-c1ccc2c(c1)[nH]c(=O)c1cnn(C3CCOCC3)c12 [Example 19],13
18,Cc1cc(C)c(-c2ccc3c(c2)[nH]c(=O)c2cnn(C4CCOCC4)c23)c(CF)n1 [Example 20],28.9
19,Cc1cc(C)c(-c2ccc3c(c2)[nH]c(=O)c2cnn(C4CCOCC4)c23)c(C(F)F)n1 [Example 21],53.9
20,COc1cc(CF)c(-c2ccc3c(c2)[nH]c(=O)c2cnn(C4CCOCC4)c23)c(C)n1 [Example 22],52.3
